From PubChem BioAssay AID248 (DTP/NCI, 2004)
Where “and” joins values, the source holds several entries; their conditions need not be identical. Identical values can stand only once. Inconclusive results and toxic doses are left out. No stated cut-off is given here; in the data, active means T/C of 150% or more; inactive means T/C below 125%.

Test system: L1210 leukemia ip in BDF1 mice, survival T/C
Assay: NCI In Vivo Anticancer Drug Screen. Data for tumor model L1210 Leukemia (intraperitoneal) in B6D2F1 (BDF1) mice
Conditions: endpoint: mean survival time, higher = longer survival
Procedure, shortened: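 Read-out is survival time, reported as the treated-group measurement over the vehicle-control measurement.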

[1] = dose: 100.0 mg/kg/injection, schedule: Q04DX003 (ip), vehicle: Klucel (hydroxypropylcellulose) (HPC)
[2] = dose: 200.0 mg/kg/injection, schedule: Q04DX003 (ip), vehicle: Klucel (hydroxypropylcellulose) (HPC)
[3] = dose: 400.0 mg/kg/injection, schedule: Q04DX003 (ip), vehicle: Klucel (hydroxypropylcellulose) (HPC)
[4] = dose: 100.0 mg/kg/injection, schedule: Q04DX002 (ip), vehicle: saline
[5] = dose: 200.0 mg/kg/injection, schedule: Q04DX002 (ip), vehicle: saline
[6] = dose: 400.0 mg/kg/injection, schedule: Q04DX002 (ip), vehicle: saline
[7] = dose: 75.0 mg/kg/injection, schedule: Q01DX001 (ip), vehicle: saline
[8] = dose: 150.0 mg/kg/injection, schedule: Q01DX001 (ip), vehicle: saline
[9] = dose: 300.0 mg/kg/injection, schedule: Q01DX001 (ip), vehicle: saline
[10] = dose: 100.0 mg/kg/injection, schedule: Q01DX009 (ip), vehicle: Klucel (hydroxypropylcellulose) (HPC)
[11] = dose: 100.0 mg/kg/injection, schedule: Q01DX001 (ip), vehicle: Klucel (hydroxypropylcellulose) (HPC)
[12] = dose: 200.0 mg/kg/injection, schedule: Q01DX001 (ip), vehicle: Klucel (hydroxypropylcellulose) (HPC)
[13] = dose: 400.0 mg/kg/injection, schedule: Q01DX001 (ip), vehicle: Klucel (hydroxypropylcellulose) (HPC)
[14] = dose: 100.0 mg/kg/injection, schedule: Q04DX003 (ip), vehicle: saline with Tween-80
[15] = dose: 200.0 mg/kg/injection, schedule: Q04DX003 (ip), vehicle: saline with Tween-80
[16] = dose: 100.0 mg/kg/injection, schedule: Q01DX001 (ip), vehicle: saline
[17] = dose: 200.0 mg/kg/injection, schedule: Q01DX001 (ip), vehicle: saline
[18] = dose: 400.0 mg/kg/injection, schedule: Q01DX001 (ip), vehicle: saline

Measured: T/C

c1ccc(C2CC(c3ccccc3)S2)cc1 (stereo not given)
inactive: [1] 100 % of control | [2] 105 % of control | [3] 105 % of control

BrCc1ccc(-c2ccccc2)cc1
inactive: dose: 5.0 mg/kg/injection, schedule: Q01DX009 (ip), vehicle: Klucel (hydroxypropylcellulose) (HPC) 96 % of control | dose: 5.0 mg/kg/injection, schedule: Q04DX003 (ip), vehicle: Klucel (hydroxypropylcellulose) (HPC) 92 % of control | dose: 10.0 mg/kg/injection, schedule: Q01DX009 (ip), vehicle: Klucel (hydroxypropylcellulose) (HPC) 93 % of control | dose: 10.0 mg/kg/injection, schedule: Q04DX003 (ip), vehicle: Klucel (hydroxypropylcellulose) (HPC) 97 % of control | dose: 20.0 mg/kg/injection, schedule: Q01DX009 (ip), vehicle: Klucel (hydroxypropylcellulose) (HPC) 98 % of control | dose: 20.0 mg/kg/injection, schedule: Q04DX003 (ip), vehicle: Klucel (hydroxypropylcellulose) (HPC) 93 % of control

Cc1cc(C)[nH]c(=S)n1
inactive: [4] 101 % of control | dose: 100.0 mg/kg/injection, schedule: Q04DX003 (ip), vehicle: saline 97 % of control | [5] 101 % of control | dose: 200.0 mg/kg/injection, schedule: Q04DX003 (ip), vehicle: saline 89 % of control | [6] 94 % of control

CNC(=O)Oc1ccccc1-c1ccccc1
inactive: dose: 100.0 mg/kg/injection, schedule: Q01DX001 (ip), vehicle: carboxymethylcellulose (CMC) 100 % of control | dose: 200.0 mg/kg/injection, schedule: Q01DX001 (ip), vehicle: carboxymethylcellulose (CMC) 100 % of control | dose: 400.0 mg/kg/injection, schedule: Q01DX001 (ip), vehicle: carboxymethylcellulose (CMC) 96 % of control

CC(=O)Nc1ccccc1Sc1ccc(Br)cc1[N+](=O)[O-]
inactive: dose: 75.0 mg/kg/injection, schedule: Q04DX003 (ip), vehicle: saline 91 % of control | dose: 150.0 mg/kg/injection, schedule: Q04DX003 (ip), vehicle: saline 90 % of control | dose: 300.0 mg/kg/injection, schedule: Q04DX003 (ip), vehicle: saline 87 % of control

Cc1ccc(C)c(NC(=O)Nc2cc(C)on2)c1
inactive: dose: 100.0 mg/kg/injection, schedule: Q01DX009 (ip), vehicle: saline with Tween-80 86 % of control | dose: 200.0 mg/kg/injection, schedule: Q01DX009 (ip), vehicle: saline with Tween-80 97 % of control | dose: 400.0 mg/kg/injection, schedule: Q01DX009 (ip), vehicle: saline with Tween-80 94 % of control

[Br][Sn]([Br])([c]1cccc2ccccc12)[c]1cccc2ccccc12
inactive: dose: 100.0 mg/kg/injection, schedule: Q01DX001 (ip), vehicle: saline with Tween-80 102 % of control | dose: 200.0 mg/kg/injection, schedule: Q01DX001 (ip), vehicle: saline with Tween-80 93 % of control | dose: 400.0 mg/kg/injection, schedule: Q01DX001 (ip), vehicle: saline with Tween-80 93 % of control

O=C(O)C1Cc2ccccc2-c2ccccc21 (stereo not given)
inactive: [7] 102 % of control | [8] 88 % of control | [9] 100 % of control

CC=C1C(C(=O)O)C1C(=O)O (stereo not given)
inactive: dose: 25.0 mg/kg/injection, schedule: Q01DX009 (ip), vehicle: Klucel (hydroxypropylcellulose) (HPC) 93 % of control | dose: 50.0 mg/kg/injection, schedule: Q01DX009 (ip), vehicle: Klucel (hydroxypropylcellulose) (HPC) 93 % of control | [10] 95 % of control and 96 % of control | [4] 115 % of control | [5] 107 % of control | [6] 113 % of control

CCCCCCCCOc1ccc(C(c2ccccc2)(c2ccccc2)c2ccccc2)cc1
inactive: [11] 90 % of control | [12] 89 % of control | [13] 89 % of control

CCOC(=O)c1c(-c2cc(OC)c(OC)c(OC)c2)csc1N
inactive: dose: 50.0 mg/kg/injection, schedule: Q04DX003 (ip), vehicle: saline with Tween-80 95 % of control | [14] 97 % of control | [15] 87 % of control | dose: 400.0 mg/kg/injection, schedule: Q04DX003 (ip), vehicle: saline with Tween-80 94 % of control

NC(=O)c1ccccc1I
inactive: [7] 101 % of control | dose: 75.0 mg/kg/injection, schedule: Q01DX009 (ip), vehicle: saline 103 % of control | [8] 96 % of control | dose: 150.0 mg/kg/injection, schedule: Q01DX009 (ip), vehicle: saline 86 % of control | [9] 96 % of control | dose: 300.0 mg/kg/injection, schedule: Q01DX009 (ip), vehicle: saline 100 % of control

CCCCCCC(C)OC(=O)c1ccccc1C(=O)OC(C)CCCCCC (stereo not given)
inactive: [4] 102 % of control | [5] 95 % of control | [6] 102 % of control

O=C1OC(=O)C(Br)C1Br (stereo not given)
inactive: dose: 1.56 mg/kg/injection, schedule: Q04DX003 (ip), vehicle: saline 106 % of control | dose: 3.12 mg/kg/injection, schedule: Q04DX003 (ip), vehicle: saline 106 % of control | dose: 6.25 mg/kg/injection, schedule: Q04DX003 (ip), vehicle: saline 95 % of control | dose: 12.5 mg/kg/injection, schedule: Q04DX003 (ip), vehicle: saline 108 % of control | dose: 25.0 mg/kg/injection, schedule: Q04DX003 (ip), vehicle: saline 87 % of control

CCSC(=S)SCC(=O)O
inactive: [14] 107 % of control | [15] 92 % of control

O=C(O)/C=C(\Cl)c1ccccc1
inactive: dose: 50.0 mg/kg/injection, schedule: Q01DX001 (ip), vehicle: saline 112 % of control | [16] 112 % of control | [17] 104 % of control | [18] 106 % of control

CC(=O)OC(C(=O)O)C(OC(C)=O)C(=O)NCCO (stereo not given)
inactive: dose: 100.0 mg/kg/injection, schedule: Q01DX001 (ip), vehicle: water 94 % of control | dose: 100.0 mg/kg/injection, schedule: Q04DX003 (ip), vehicle: water 87 % of control | dose: 200.0 mg/kg/injection, schedule: Q01DX001 (ip), vehicle: water 96 % of control | dose: 200.0 mg/kg/injection, schedule: Q04DX003 (ip), vehicle: water 95 % of control | dose: 400.0 mg/kg/injection, schedule: Q01DX001 (ip), vehicle: water 94 % of control | dose: 400.0 mg/kg/injection, schedule: Q04DX003 (ip), vehicle: water 97 % of control

O=P(NC12CC3CC(CC(C3)C1)C2)(Oc1ccccc1)Oc1ccccc1
inactive: [1] 101 % of control | [2] 97 % of control | [3] 87 % of control

O=S(=O)(/N=C1/c2ccccc2/C(=N/S(=O)(=O)c2ccccc2)C2CC=CCC12)c1ccccc1 (stereo not given)
inactive: dose: 25.0 mg/kg/injection, schedule: Q01DX001 (ip), vehicle: saline sonified 94 % of control | dose: 50.0 mg/kg/injection, schedule: Q01DX001 (ip), vehicle: saline sonified 95 % of control | dose: 100.0 mg/kg/injection, schedule: Q01DX001 (ip), vehicle: saline sonified 92 % of control

c1cc2[nH]c1C1(CCCC1)c1ccc([nH]1)C1(CCCC1)c1ccc([nH]1)C1(CCCC1)c1ccc([nH]1)C21CCCC1
inactive: [16] 102 % of control | [17] 103 % of control | [18] 94 % of control

CC(=O)[O][Hg][c]1cc2c(cc1O)Cc1cc([N+](=O)[O-])ccc1-2
inactive: dose: 12.5 mg/kg/injection, schedule: Q01DX001 (ip), vehicle: carboxymethylcellulose (CMC) 105 % of control | dose: 25.0 mg/kg/injection, schedule: Q01DX001 (ip), vehicle: carboxymethylcellulose (CMC) 100 % of control | dose: 50.0 mg/kg/injection, schedule: Q01DX001 (ip), vehicle: carboxymethylcellulose (CMC) 97 % of control

CCOC(=O)C(=O)Nc1onc(C)c1[N+](=O)[O-]
inactive: [11] 91 % of control | [10] 93 % of control | [12] 97 % of control | dose: 200.0 mg/kg/injection, schedule: Q01DX009 (ip), vehicle: Klucel (hydroxypropylcellulose) (HPC) 93 % of control | [13] 100 % of control
